Columns and labels:
Assay type in all cases: in vivo
Broadleaf Signalgrass = experiment: pre-emergence herbicide test; details: Urochloa platyphylla, 0.25 lb/A, read-out: % plant inhibition
Method in brief: (§1)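 Pre-emergence soil treatment: seeds on compacted topsoil, cover layer dosed with test compound in organic solvent (e.g. acetone) or water. Greenhouse, subirrigated as needed, sometimes 1/4 inch overhead water right after treatment. Read-out ~14 d: % inhibition.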

Giant Foxtail = experiment: pre-emergence herbicide test; details: Setaria faberi, pre-emergence, 0.25 lb/A; read-out: % plant inhibition
Method in brief: as §1

Seedling Johnsongrass = experiment: pre-emergence herbicide test; details: 0.25 lb/A; for inhibition at 280.212 g/ha: Sorghum halepense, pre-emergence, read-out: % plant inhibition
Method in brief: as §1

Shattercane = experiment: pre-emergence herbicide test; details: 0.25 lb/A, read-out: % plant inhibition
Method in brief: as §1

Wild Proso Millet = experiment: pre-emergence herbicide test; details: 0.25 lb/A, read-out: % plant inhibition
Method in brief: as §1

Bedstraw Catchweed = experiment: post-emergence herbicide test; details: Galium aparine, post-emergence, read-out: % plant inhibition; for inhibition at 7.95803 g/ha: 0.0071 lb/A; for inhibition at 40.0143 g/ha: 0.0357 lb/A; for inhibition at 200.072 g/ha: 0.1785 lb/A; for inhibition at 1000.92 g/ha: 0.893 lb/A
Method in brief: (§2)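 Percent inhibition of each species scored after post-emergence spraying of two- to three-week-old greenhouse plants. Spray solution carried about 0.4% by volume emulsifier, delivered by atomizer at 170.3 kPa (10 psig) and 1870 L/Ha total volume.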

Cocklebur = experiment: post-emergence herbicide test; details: Xanthium strumarium, post-emergence, read-out: % plant inhibition; for inhibition at 7.95803 g/ha: 0.0071 lb/A; for inhibition at 40.0143 g/ha: 0.0357 lb/A; for inhibition at 200.072 g/ha: 0.1785 lb/A; for inhibition at 1000.92 g/ha: 0.893 lb/A
Method in brief: as §2

Common Chickweed = experiment: post-emergence herbicide test; details: post-emergence, read-out: % plant inhibition; for inhibition at 7.95803 g/ha: 0.0071 lb/A; for inhibition at 40.0143 g/ha: 0.0357 lb/A; for inhibition at 200.072 g/ha: 0.1785 lb/A; for inhibition at 1000.92 g/ha: 0.893 lb/A
Method in brief: as §2

Morning Glory = experiment: post-emergence herbicide test; details: Ipomoea, post-emergence, read-out: % plant inhibition; for inhibition at 7.95803 g/ha: 0.0071 lb/A; for inhibition at 40.0143 g/ha: 0.0357 lb/A; for inhibition at 200.072 g/ha: 0.1785 lb/A; for inhibition at 1000.92 g/ha: 0.893 lb/A
Method in brief: as §2

Yellow Nutsedge = experiment: post-emergence herbicide test; details: Cyperus, read-out: % plant inhibition; for inhibition at 7.95803 g/ha: 0.0071 lb/A; for inhibition at 40.0143 g/ha: 0.0357 lb/A; for inhibition at 200.072 g/ha: 0.1785 lb/A; for inhibition at 1000.92 g/ha: 0.893 lb/A
Method in brief: as §2

Prickly Sida [1] = experiment: pre-emergence herbicide test; details: 0.25 lb/A, read-out: % plant inhibition
Method in brief: as §1

Black Nightshade = experiment: post-emergence herbicide test; details: Solanum nigrum, 0.25 lb/A, read-out: % plant inhibition
Method in brief: as §2

Hemp Sesbania = experiment: post-emergence herbicide test; details: 0.25 lb/A, read-out: % plant inhibition
Method in brief: as §2

Prickly Sida [2] = experiment: post-emergence herbicide test; details: 0.25 lb/A, read-out: % plant inhibition
Method in brief: as §2

Sicklepod = experiment: post-emergence herbicide test; details: Senna obtusifolia, 0.25 lb/A, read-out: % plant inhibition
Method in brief: as §2

Compound	inhibition at 280.212 g/ha (Giant Foxtail) [%]	inhibition at 280.212 g/ha (Seedling Johnsongrass) [%]	inhibition at 7.95803 g/ha (Bedstraw Catchweed) [%]	inhibition at 40.0143 g/ha (Bedstraw Catchweed) [%]	inhibition at 200.072 g/ha (Bedstraw Catchweed) [%]	inhibition at 1000.92 g/ha (Bedstraw Catchweed) [%]	inhibition at 7.95803 g/ha (Cocklebur) [%]	inhibition at 40.0143 g/ha (Cocklebur) [%]	inhibition at 200.072 g/ha (Cocklebur) [%]	inhibition at 1000.92 g/ha (Cocklebur) [%]	inhibition at 7.95803 g/ha (Common Chickweed) [%]	inhibition at 40.0143 g/ha (Common Chickweed) [%]	inhibition at 200.072 g/ha (Common Chickweed) [%]	inhibition at 1000.92 g/ha (Common Chickweed) [%]	inhibition at 7.95803 g/ha (Morning Glory) [%]	inhibition at 40.0143 g/ha (Morning Glory) [%]	inhibition at 200.072 g/ha (Morning Glory) [%]	inhibition at 1000.92 g/ha (Morning Glory) [%]	inhibition at 7.95803 g/ha (Yellow Nutsedge) [%]	inhibition at 40.0143 g/ha (Yellow Nutsedge) [%]	other results
COc1cc(-c2nn(C)c(C(F)(F)F)c2C)c(F)cc1Cl [Compound 37]	100	100	20	35	75	90	5	40	55	80	0	40	70	80	0	45	95	100	0	10	inhibition at 280.212 g/ha (Broadleaf Signalgrass): 100%; inhibition at 280.212 g/ha (Shattercane): 100%; inhibition at 280.212 g/ha (Wild Proso Millet): 100%; inhibition at 200.072 g/ha (Yellow Nutsedge): 15%; inhibition at 1000.92 g/ha (Yellow Nutsedge): 40%
Cc1c(-c2cc(OCC(=O)OC(C)C)c(Cl)cc2F)nn(C)c1C(F)(F)F [Compound 38]	20	30	35	85	90	85	80	80	80	100	65	75	95	98	80	100	100	100	35	25	inhibition at 280.212 g/ha (Prickly Sida [1]): 95%; % plant inhibition (Seedling Johnsongrass): 25%; inhibition at 280.212 g/ha (Black Nightshade): 100%; inhibition at 280.212 g/ha (Cocklebur; 0.25 lb/A): 100%; inhibition at 280.212 g/ha (Hemp Sesbania): 100%; inhibition at 280.212 g/ha (Morning Glory; 0.25 lb/A): 95%; inhibition at 280.212 g/ha (Prickly Sida [2]): 50%; inhibition at 280.212 g/ha (Sicklepod): 20%; inhibition at 200.072 g/ha (Yellow Nutsedge): 25%; inhibition at 1000.92 g/ha (Yellow Nutsedge): 25%
